Each block holds one compound with its values, some of them ahead of it.
Legend:
NPY Y5 receptor [1] = molecular target: T1, NPY Y5 receptor (Homo sapiens, UniProt Q15761); experiment: Radioligand (125I-PYY) binding to membrane suspensions, cloned human NPY Y5 receptor; design: expressed in transfected cells; host or cells: LM(tk-) cells (typically); details: 125I-PYY competition, membranes of transfected LM(tk-) cells; read-out: Ki, binding affinity of selected compounds
T1 sequence (Q15761 1-445): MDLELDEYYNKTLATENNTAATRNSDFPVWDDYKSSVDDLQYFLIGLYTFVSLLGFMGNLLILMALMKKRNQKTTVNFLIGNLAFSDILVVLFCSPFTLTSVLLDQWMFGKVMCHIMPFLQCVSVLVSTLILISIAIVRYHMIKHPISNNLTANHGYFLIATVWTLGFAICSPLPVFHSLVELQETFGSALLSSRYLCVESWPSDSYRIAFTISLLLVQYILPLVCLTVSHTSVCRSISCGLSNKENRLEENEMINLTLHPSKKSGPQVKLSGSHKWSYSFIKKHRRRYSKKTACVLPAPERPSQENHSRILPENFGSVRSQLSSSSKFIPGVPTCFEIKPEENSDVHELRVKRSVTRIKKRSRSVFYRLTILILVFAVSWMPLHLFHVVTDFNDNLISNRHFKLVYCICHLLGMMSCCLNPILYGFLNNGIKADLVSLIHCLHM
Protocol: (§1) The pharmacological properties of the compounds of the present invention were evaluated at the cloned human NPY Y5 receptor using the protocols disclosed in U.S. Pat. No. 6,124,331, the contents of which are hereby incorporated by reference. The procedures for cell culture, transient transfection and membrane harvest, which are well known in the art, are described therein
Briefly, membrane suspensions from transfected cells (typically expressed in LM(tk-) cells) and ^125I-PYY radioligand (PerkinElmer, Waltham, Mass.) were diluted in binding buffer supplemented with 0.1% bovine serum albumin to yield an optimal membrane protein concentration so that ^125I-PYY bound by membranes in the assay was less than 10% of ^125I-PYY delivered to the sample (100,000 dpm/sample=0.08 nM for competition binding assays). Test compounds were diluted to desired concentrations with supplemented binding buffer in the presence of 30% DMSO. The binding assay was performed in 96-well polypropylene microtiter plates by mixing 125I-PYY test compound (25 μL), and finally, membrane suspensions (200 μL). Final DMSO=3%. Samples were incubated in at room temperature for about 120 min. Incubations were terminated by filtration over Whatman GF/C filters (pre-coated with 1% polyethyleneimine and air-dried before use), followed by washing with ice-cold binding buffer. Filter-trapped membranes were impregnated with MeltiLex solid scintillant (Wallac, Turku, Finland) and counted for ^125I-PYY in a Wallac MicroBeta Trilux. Non-specific binding was defined by 1000 nM porcine NPY. Specific binding was typically 80%; most non-specific binding was associated with the filter. Binding data were analyzed using nonlinear regression and statistical techniques available in the GraphPAD Prism package (San Diego, Calif.).

Wistar rats = Wistar rats exposed to chronic mild stress, chronic dosing 3, 10 mg/kg/day, i.p.; cited from earlier work
[2] = system: Flinders Sensitive Line rats; details: chronic dosing 10 mg/kg/day, i.p.; cited from earlier work
Sprague Dawley rats = details: 3-30 mg/kg, p.o., acute or chronic treatment; cited from earlier work
[3] = system: Flinders Sensitive Line rats; details: chronic dosing 10 mg/kg/day, i.p.; cited from earlier work; remark: listed apart in the source
Y5 receptor = molecular target: T2, Y5 receptor (Rattus norvegicus, UniProt Q63634); details: increase elicited by i.c.v. injection of cPP(1-7), NPY(19-23),Ala31,Aib32, Gln34]; cited from earlier work
T2 construct: host or cells: animals in vivo (i.c.v. injection of Y5 agonist)
T2 sequence (Q63634 1-445): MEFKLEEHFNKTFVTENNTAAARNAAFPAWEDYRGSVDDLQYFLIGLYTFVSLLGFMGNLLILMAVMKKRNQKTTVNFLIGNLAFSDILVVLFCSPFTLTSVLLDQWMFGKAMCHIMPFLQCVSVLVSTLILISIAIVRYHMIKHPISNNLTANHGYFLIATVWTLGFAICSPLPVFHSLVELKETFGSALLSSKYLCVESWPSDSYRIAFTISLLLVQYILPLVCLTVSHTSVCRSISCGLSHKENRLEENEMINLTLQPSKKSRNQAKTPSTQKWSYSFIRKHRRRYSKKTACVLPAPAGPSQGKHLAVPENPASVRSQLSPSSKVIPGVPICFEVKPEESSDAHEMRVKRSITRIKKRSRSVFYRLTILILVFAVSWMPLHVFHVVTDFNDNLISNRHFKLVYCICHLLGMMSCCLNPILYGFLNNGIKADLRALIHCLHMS

NPY Y5 receptor [4] = molecular target: T1, NPY Y5 receptor; experiment: NPY Y5-dependent inhibition of forskolin-stimulated cAMP accumulation; type: cell-based; design: expressed in transfected cells; details: stably transfected cells, NPY then forskolin 10 uM, cAMP by HTRF
Protocol: as §1
Stably transfected cells were seeded into 96-well microtiter plates and cultured until confluent. To reduce the potential for receptor desensitization, the serum component of the media was reduced to 1.5% for 4 to 16 hours before the assay. Cells were washed in Hank's buffered saline, or HBS (150 mM NaCl, 20 mM HEPES, 1 mM CaCl2, 5 mM KCl, 1 mM MgCl2, and 10 mM glucose) supplemented with 0.1% bovine serum albumin plus 100 uM IBMX. […] The assay was then terminated and intracellular cAMP was quantified by with highthroughput time-resolved flourometry (HTRF kit from CisBio, Bedford, Mass.). The effect of the test compound on agonist (NPY) activity were analyzed using nonlinear regression and statistical techniques available in the GraphPAD Prism package (San Diego, Calif.). The compounds of Example 2a and 5b were determined to function as an antagonist at the NPY Y5 receptor.

Ki (NPY Y5 receptor [1]): 12 nM
Structure (SMILES): CN1CCCN([C@H]2CC[C@@H](C(=O)Nc3ccc(-c4cc(F)cc(F)c4)cn3)CC2)C1=O [Example 5a, cis-4-(3-Methyl-2-oxotetrahydro-pyrimidin-1-yl)-cyclohexanecarboxylic acid [5-(3,5-difluoro-phenyl)-pyridin-2-yl]-amide]

Ki (NPY Y5 receptor [1]): 9 nM
Structure (SMILES): O=C1NCCCN1[C@H]1CC[C@@H](C(=O)Nc2ccc(-c3cc(F)cc(F)c3)cn2)CC1 [Example 4a, cis-4-(2-Oxo-tetrahydro-pyrimidin-1-yl)-cyclohexanecarboxylic acid [5-(3,5-difluoro-phenyl)-pyridin-2-yl]-amide]

Ki (NPY Y5 receptor [1]): 8 nM
Structure (SMILES): O=C1COCCN1[C@H]1CC[C@@H](C(=O)Nc2ccc(-c3cc(F)cc(F)c3)cn2)CC1 [Example 6a, cis-4-(3-Oxo-morpholin-4-yl)-cyclohexanecarboxylic acid [5-(3,5-difluoro-phenyl)-pyridin-2-yl]-amide]

Structure (SMILES): CS(=O)(=O)NCC1CCC(Nc2nc3c(s2)CCSc2ccccc2-3)CC1 (stereo not drawn) [Lu AA33810]
effect on stress-induced decrease in sucrose consumption (Wistar rats): antidepressant-like activity
effect in social interaction test [2]: anxiolytic-like effects
effect in social interaction test (Sprague Dawley rats): anxiolytic-like effects
effect in forced swim test [3]: antidepressant-like effects
effect on increase in plasma ACTH (Y5 receptor): attenuated increases
effect on increase in plasma cortisol (Y5 receptor): attenuated increases

Ki (NPY Y5 receptor [1]): 720 nM
Structure (SMILES): O=C1CCCN1[C@H]1CC[C@H](C(=O)Nc2ccc(-c3cc(F)cc(F)c3)cn2)CC1 [Example 1a, trans-4-(2-Oxo-pyrrolidin-1-yl)-cyclohexanecarboxylic acid [5-(3,5-difluoro-phenyl)-pyridin-2-yl]-amide]

Ki (NPY Y5 receptor [1]): 8 nM
function at the NPY Y5 receptor (effect on NPY agonist activity) (NPY Y5 receptor [4]): antagonist
Structure (SMILES): O=C1OCCN1[C@H]1CC[C@@H](C(=O)Nc2ccc(-c3cc(F)cc(F)c3)cn2)CC1 [Example 2a, cis-4-(2-Oxo-oxazolidin-3-yl)-cyclohexanecarboxylic acid [5-(3,5-difluoro-phenyl)-pyridin-2-yl]-amide]

Ki (NPY Y5 receptor [1]): 6 nM
Structure (SMILES): O=C1OCCCN1[C@H]1CC[C@@H](C(=O)Nc2ccc(-c3cc(F)cc(F)c3)cn2)CC1 [Example 3a, cis-4-(2-Oxo-perhydro-1,3-oxazin-3-yl)-cyclohexanecarboxylic acid [5-(3,5-difluoro-phenyl)-pyridin-2-yl]-amide]

Ki (NPY Y5 receptor [1]): 3.8 nM
function at the NPY Y5 receptor (effect on NPY agonist activity) (NPY Y5 receptor [4]): antagonist
Structure (SMILES): CN1CCN([C@H]2CC[C@@H](C(=O)Nc3ccc(-c4cc(F)cc(F)c4)cn3)CC2)C1=O [Example 5b, cis-4-(3-Methyl-2-oxo-imidazolidin-1-yl)-cyclohexanecarboxylic acid [5-(3,5-difluoro-phenyl)-pridin-2-yl]-amide]

From patent US20120101078A1, “AMIDE DERIVATIVES AS NEUROPEPTIDE Y5 RECEPTOR LIGANDS” (H. Lundbrck A/S, priority 2009, published 2012)
